Patent US20040097576A1, “Use of tryptophan derivatives for the specific cytostatic treatment of serotonin-producing tumors” (priority 2001, published 2004)

What was measured:
[1] = system: serotonin-producing cells NG108; assay: Toxicity of 7-HTP on serotonin-producing cells NG108 (FIG. 2); assay type: cell-based
Text: (§1) FIG. 2. […] In contrast, the growth of COS7-cells that produce no serotonin is not affected by 7-HTP.

[2] = system: tryptophan-hydroxylase (TPH) and aromatic-amino acid-decarboxylase (AAAD); assay: Intracellular enzymatic metabolisation by TPH and AAAD; assay type: in vitro ADME; details: 7-HTP to 5,7-DHT, 6-HTP to 5,6-DHT
Text: The invention is put into practice according to the claims. […] These two enzymes, TPH and AAAD, are expressed extraordinarily strong in serotonin-producing tumor cells. Due to the unequally higher TPH-expression in these tumor cells in comparison with normal serotonin-producing tissues, only marginally toxic effects occur in these tissues.
FIG. 1. Reaction scheme of enzymatic metabolisation of 7-hydroxytryptophan (7-HTP) to 5,7-dihydroxytryptamine (5,7-DHT). The rate-limiting first step is mediated by the enzyme tryptophan-hydroxylase (TPH) and is followed by a rapid decarboxylation by the aromatic-amino acid-decarboxylase (AAAD).

COS7-cells = assay: Growth of COS7-cells that produce no serotonin (FIG. 2); assay type: cell-based
Text: as §1

[3] = system: serotonin-producing human carcinoid cells BON; assay: Toxicity of 7-HTP on human carcinoid cells BON (FIG. 4); assay type: cell-based
[4] = system: serotonin-producing mastocytoma cells P815; assay: Toxicity of 7-HTP on mastocytoma cells P815 (FIG. 3); assay type: cell-based

Row | SMILES | protection of 7-HTP-sensitive NG108-cells against 7-HTP toxicity ([1]; NG108 cells treated with 7-HTP plus TPH-inhibitor, no 5,7-DHT synthesised intracellularly) | intracellular metabolisation to dihydroxytryptamine toxin [2] | growth of COS7-cells (COS7-cells) | toxicity on the serotonin-producing human carcinoid cells BON [3] | toxicity on the serotonin-producing cells NG108 ([1]; NG108 cells, FIG. 2) | toxicity on the serotonin-producing mastocytoma cells P815 [4]
1 | N[C@@H](Cc1ccc(Cl)cc1)C(=O)O [PCPA, p-chlorophenylalanin, reference compound] | can be protected |  |  |  |  | 
2 | N[C@@H](Cc1c[nH]c2cc(O)ccc12)C(=O)O [6-HTP, 6-hydroxytryptophan] |  | metabolised intracellularly |  |  |  | 
3 | N[C@@H](Cc1c[nH]c2c(O)cccc12)C(=O)O [7-HTP, 7-hydroxytryptophan] |  | metabolised intracellularly | not affected | rapidly and specifically killed | Specific toxicity | rapidly and specifically killed
